Measured values published in patent US8022050B2, “Compound for inhibiting TRPA1 function and use thereof” (Korea University Industry and Academic Collaboration …, priority 2008, dated 2011).

Tests used:
[1] = test system: inflammatory sensitization induced by carrageenan; assay: Sensitivity to thermal stimulation (avoidance time) in carrageenan-injected mice; format: in vivo; settings: 10 μl of 0.1% carrageenan 3 h before, 10 μl of 1 mM substance into hind paw, FIG. 4
Protocol: Equal amount of AP18 (Biomol, USA), the TRPA1 specific inhibitor, was injected into the positive control. Avoidance time was measured by using thermal stimulator (Ugo basile plant test, Italy). Each group was composed of 5 mice and beam injection was performed four times, which were averaged.

[2] = test system: pain induced by cinnamaldehyde; assay: Acute hind paw licking/flicking behaviors in mice (cinnamaldehyde-induced pain, normal or inflammatory condition); format: in vivo; settings: hind paw injection, 10 minutes, substance injected alone, FIG. 3a
Protocol: The time spent for the hind paw licking/flicking behaviors in mice were measured according to the method of Bandell M, et al. (Neuron 41:849-857, 2004) and Moqrich A, et al. (Science 307:1468-1472, 2005), for 10 minutes. • Control: non-treatment; • Experimental group 1. […] 300 μM of CA; • Experimental group 3.

Compound | Sensitivity against thermal stimulation (avoidance time) [1] | Time spent for hind paw licking/flicking behaviors, substance alone [2]
CC(=C\c1ccc(Cl)cc1)/C(C)=N/O [AP18] | almost no effects | 
O=CC=Cc1ccccc1 [cinnamaldehyde] |  | increased the time spent for the behaviors
